We go through 14 molecules from PubChem BioAssay (NCI).

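Each compound was tested at five concentrations against cells in 96-well plates for 48 hours. At the GI50, growth is halved. The concentration for full growth arrest is given as TGI.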 Some results are limits rather than exact numbers.

Test systems include HCT-15 colon; CAKI-1 renal; SK-OV-3 ovarian; OVCAR-3 ovarian; SN12C renal; DMS 114 small cell lung; SW-620 colon; CCRF-CEM leukemia; DMS 273 small cell lung; EKVX NSCLC.
What all share (assay): growth of human tumour cells (NCI), 48 h

Turning to `O=S(O)CCCCSSCCCCSSCCCCS(=O)O`, the TGI with HCT-15 colon, in the assay on CAKI-1 renal, with SK-OV-3 ovarian, in the assay on OVCAR-3 ovarian, in the assay on SN12C renal and in the assay on DMS 114 small cell lung was greater than 100 µM each time. The TGI with SW-620 colon was greater than 100 µM; in the assay with CCRF-CEM leukemia, 64.6 µM; in the assay with DMS 273 small cell lung it was greater than 100 µM; in the assay on EKVX NSCLC, 66.3 µM.

With `O=c1[nH]c(=O)n(C2CC(O)C(CS)O2)cc1F` (centres undefined), the TGI with HCT-15 colon, in the assay with CAKI-1 renal, in the assay on SK-OV-3 ovarian, in the assay on OVCAR-3 ovarian, in the assay on SN12C renal and in the assay with DMS 114 small cell lung was greater than 100 µM throughout. The TGI with SW-620 colon, in the assay with CCRF-CEM leukemia and with EKVX NSCLC was greater than 100 µM throughout.

As for `CCC1(O)C(=O)OCc2c1cc1n(c2=O)Cc2cc3c(N)cccc3nc2-1` (centres undefined), the TGI was 25.2 µM in the assay with HCT-15 colon; 0.272 µM in the assay on CAKI-1 renal; 0.804 µM in the assay with SK-OV-3 ovarian; 3.02 µM in the assay with OVCAR-3 ovarian; 0.595 µM in the assay with SN12C renal; 0.504 µM in the assay on DMS 114 small cell lung. Besides, the TGI came to 11.7 µM in the assay on SW-620 colon, 0.0858 µM in the assay with CCRF-CEM leukemia, 0.209 µM in the assay with DMS 273 small cell lung and 30.3 µM in the assay on EKVX NSCLC. Moreover, the GI50 in the assay with SW-620 colon was 0.0531 µM.

As for `CCOC(=O)NC(=O)c1cn(CCCOC(=O)NCCCCCCNC(=O)OCCCn2c(=O)c(C(=O)NC(=O)OCC)cn(C)c2=O)c(=O)n(C)c1=O`, the TGI in the assay on HCT-15 colon, in the assay with CAKI-1 renal, with SK-OV-3 ovarian, in the assay on OVCAR-3 ovarian, in the assay with SN12C renal and with DMS 114 small cell lung was greater than 100 µM throughout. In addition, the TGI in the assay on SW-620 colon, in the assay on CCRF-CEM leukemia and in the assay with DMS 273 small cell lung was greater than 100 µM throughout.

On to `Cc1ccc(C(=O)/C=C/c2ccccc2O)c(C)c1`, for which the TGI with HCT-15 colon, with CAKI-1 renal, in the assay on SK-OV-3 ovarian, with OVCAR-3 ovarian, in the assay with SN12C renal and with DMS 114 small cell lung was greater than 100 µM each time. Moreover, the TGI in the assay on SW-620 colon, in the assay on CCRF-CEM leukemia, in the assay with DMS 273 small cell lung and with EKVX NSCLC was greater than 100 µM throughout.

For the molecule `COC(=O)CSc1n[nH]c(-c2ccc(O)c([N+](=O)[O-])c2)n1`, the TGI with HCT-15 colon, with CAKI-1 renal, in the assay on OVCAR-3 ovarian, in the assay on SN12C renal, with SW-620 colon and with CCRF-CEM leukemia was greater than 100 µM throughout. Besides, the TGI with DMS 273 small cell lung and with EKVX NSCLC was greater than 100 µM each time.

Take `Cc1cc(NS(=O)(=O)c2ccc(NC(=O)c3cccc4c(=O)c5ccccc5[nH]c34)cc2)no1`: the TGI in the assay on HCT-15 colon is greater than 100 µM; with CAKI-1 renal, greater than 100 µM; with SK-OV-3 ovarian, 72.7 µM; with OVCAR-3 ovarian, 95.5 µM; in the assay on SN12C renal, greater than 100 µM; in the assay with DMS 114 small cell lung, greater than 100 µM. Also, the TGI is greater than 100 µM with SW-620 colon, 94.2 µM in the assay on CCRF-CEM leukemia and greater than 100 µM with EKVX NSCLC.

In the case of `CCc1cccc(C)c1NC(C)=O`, the TGI in the assay on HCT-15 colon, in the assay with CAKI-1 renal, in the assay on SK-OV-3 ovarian, in the assay with OVCAR-3 ovarian, with DMS 114 small cell lung and in the assay with SW-620 colon was greater than 100 µM each time. Further, the TGI in the assay on CCRF-CEM leukemia, in the assay with DMS 273 small cell lung and with EKVX NSCLC was greater than 100 µM each time.

Consider `COc1ccc(OC)c(/C=C/NC=O)c1`, for which the TGI in the assay with HCT-15 colon, in the assay on CAKI-1 renal, with SK-OV-3 ovarian, with OVCAR-3 ovarian, in the assay on SN12C renal and in the assay on DMS 114 small cell lung was greater than 100 µM in each case. Also, the TGI with SW-620 colon, in the assay on CCRF-CEM leukemia, in the assay on DMS 273 small cell lung and with EKVX NSCLC was greater than 100 µM in each case.

In the case of `CCN(CC)C(=O)C/C(C)=N/NC(=O)c1ccncc1`, the TGI in the assay with SK-OV-3 ovarian, in the assay with OVCAR-3 ovarian, with DMS 114 small cell lung, in the assay with SW-620 colon, in the assay with CCRF-CEM leukemia and in the assay with DMS 273 small cell lung was greater than 100 µM throughout. In the assay on EKVX NSCLC, the TGI is greater than 100 µM.

For the molecule `Cc1ccc(N=NC(C(=O)c2ccccc2)C(=O)c2ccccc2)cc1`, the TGI in the assay with HCT-15 colon was 43.6 µM; with CAKI-1 renal it was 85 µM; with SK-OV-3 ovarian, 96 µM; in the assay on OVCAR-3 ovarian, greater than 100 µM; with SN12C renal, 55.2 µM; in the assay with DMS 114 small cell lung, 54.7 µM. For the same molecule, the TGI with SW-620 colon was greater than 100 µM; in the assay on CCRF-CEM leukemia, 69.4 µM; with DMS 273 small cell lung it was 58.8 µM; in the assay on EKVX NSCLC, greater than 100 µM.

On to `COC(=O)C(=O)C(C(=O)C=C(C)C)C(=O)C(=O)Nc1ccc(Cl)cc1C` (centres undefined), for which the TGI in the assay on HCT-15 colon, with CAKI-1 renal, with SK-OV-3 ovarian, in the assay on OVCAR-3 ovarian, in the assay with SN12C renal and with DMS 114 small cell lung was greater than 100 µM throughout. Moreover, the TGI in the assay on CCRF-CEM leukemia, in the assay with DMS 273 small cell lung and with EKVX NSCLC was greater than 100 µM throughout.

Turning to `N#CCCN(CCC#N)c1ccc(/C=C2\N=C(CN3C(=O)c4ccccc4C3=O)OC2=O)cc1`, the TGI with HCT-15 colon, with CAKI-1 renal, with SK-OV-3 ovarian, with OVCAR-3 ovarian, in the assay with SN12C renal and in the assay with DMS 114 small cell lung was greater than 100 µM throughout. Further, the TGI in the assay with SW-620 colon, in the assay with DMS 273 small cell lung and with EKVX NSCLC was greater than 100 µM throughout.

As to `CN(C)C(=S)/N=c1\ss/c(=N\C(=S)N(C)C)n1-c1ccc2c(c1)OCO2`, the TGI in the assay with HCT-15 colon, in the assay on CAKI-1 renal, with SK-OV-3 ovarian, in the assay on OVCAR-3 ovarian, with SN12C renal and in the assay on DMS 114 small cell lung was greater than 100 µM each time. Also, the TGI with SW-620 colon, with DMS 273 small cell lung and in the assay with EKVX NSCLC was greater than 100 µM in each case.
